In patent US10550089B2, “Inhibitors of protease-activated receptor-2” (Heptares Therapeutics Limited, priority 2016, dated 2020):

What was measured:
PAR2 [1] = target: T1, PAR2 (Homo sapiens (Human), UniProt P55085); experiment: IP-One HTRF assay for PAR2 antagonist activity (IP1 production); type: cell-based
Experimental: Protocol for Testing Compounds for PAR2 Antagonist Activity Using an IP-One HTRF Assay
Inositol monophosphate (IP1) production were measured in 1321N1 cells stably expressing human PAR2 using an IP-One HTRF assay kit (Cisbio). […] After 60 min at 37° C. cells were lysed and IP1 concentrations were detected according to the manufacturers protocol (Cisbio). Data were normalized to IP1 concentrations using a IP1 standard curve according to the manufacturers protocol (Cisbio).

PAR2 [2] = target: T1, PAR2; experiment: Trypsin activated FLPR Ca2+ mobilization assay for PAR2 antagonist activity; type: cell-based
Experimental: Trypin Activated FLPR Assay:
Protocol for Testing Compounds for PAR2 Antagonist Activity Using a Ca2+ Mobilization Assay
Calcium mobilization was measured using 1321N1 cells stably expressing human PAR2. Cells were seeded in 384-well plates at 4,000 cells per well in 20 μl DMEM with Glutamax supplemented with 10% FBS and incubated for 18-24 h at 37° C., 5% CO2 and 95% humidity. […] The addition was done using a FLIPR^TETRA (384-well head, Molecular Devices) and the response was read simultaneously to detect any agonist activity.

PAR2 [3] = target: T1, PAR2; experiment: FLPR dissociation rate assay (PAR2 mean residence time); type: cell-based; settings: cells washed after compound incubation (60-240 min); peptide agonist SLIGLR-NH2; read-out: FLPR Residence time t1/2
Source text: FLPR Dissociation Rate Assay: Protocol for Testing Compounds for PAR2 Mean Residence Time
The peptide agonist SLIGLR-NH2 (ECso) was used in place of trypsin.

PAR1 = PAR1 (Homo sapiens (Human), UniProt P25116); experiment: β-arrestin type assay by DiscoverX against PAR1
Chain of PAR1 (P25116 22-425): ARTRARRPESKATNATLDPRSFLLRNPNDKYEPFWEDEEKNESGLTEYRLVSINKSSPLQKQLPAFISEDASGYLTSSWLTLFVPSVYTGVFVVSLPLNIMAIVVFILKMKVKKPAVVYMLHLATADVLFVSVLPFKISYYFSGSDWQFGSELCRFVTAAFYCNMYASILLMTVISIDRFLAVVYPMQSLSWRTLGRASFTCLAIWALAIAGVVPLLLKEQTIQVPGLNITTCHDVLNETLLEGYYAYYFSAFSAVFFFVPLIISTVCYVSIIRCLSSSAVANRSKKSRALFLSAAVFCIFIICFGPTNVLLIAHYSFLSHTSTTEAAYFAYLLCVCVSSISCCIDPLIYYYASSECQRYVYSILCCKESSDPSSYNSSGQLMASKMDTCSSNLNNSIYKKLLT

[4] = hPAR2 IPpone IC50 (μM), 1321N1 cells stably expressing human PAR2, agonist SLIGRL-NH2
[5] = hPAR2 FLPR (Trypsin) IC50 (μM), 1321N1 cells stably expressing human PAR2, agonist Trypsin, Vorapaxar present to block PAR1
[6] = 1321N1 cells stably expressing human PAR2, agonist SLIGRL-NH2, read-out: hPAR2 IPpone IC50
[7] = 1321N1 cells stably expressing human PAR2, agonist Trypsin, Vorapaxar present to block PAR1, read-out: hPAR2 FLPR (Trypsin) IC50

T1 sequence (P55085 26-397): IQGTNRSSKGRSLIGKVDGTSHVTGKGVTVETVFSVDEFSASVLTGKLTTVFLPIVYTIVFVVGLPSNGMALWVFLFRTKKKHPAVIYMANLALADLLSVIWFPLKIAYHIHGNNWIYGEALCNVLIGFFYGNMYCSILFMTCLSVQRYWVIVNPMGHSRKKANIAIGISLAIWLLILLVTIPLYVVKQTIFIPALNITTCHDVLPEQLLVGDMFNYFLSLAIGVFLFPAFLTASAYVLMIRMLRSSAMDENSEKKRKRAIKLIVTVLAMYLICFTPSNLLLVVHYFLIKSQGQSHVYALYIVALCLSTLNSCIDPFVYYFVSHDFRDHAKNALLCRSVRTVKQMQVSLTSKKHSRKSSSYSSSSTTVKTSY

| SMILES | IC50 (PAR2 [1]; [6]) [µM] | IC50 (PAR2 [2]; [7]) [µM] | further results |
| --- | --- | --- | --- |
| OC(c1ncc[nH]1)c1ccc(F)cc1N1CCCC1 (single isomer, unassigned) [Example 16, (4-Fluoro-2-(pyrrolidin-1-yl)phenyl)(1H-imidazol-2-yl)methanol] |  |  | IC50 (PAR2 [1]; hPAR2 IPpone IC50 (μM)): 0.96 µM; IC50 (PAR2 [2]; hPAR2 FLPR (Trypsin) IC50 (μM)): 10.1 µM; residence time (PAR2 [3]): 161 min |
| CCc1ccc2c(F)ccc(C(O)c3ncc[nH]3)n12 (single isomer, unassigned) [Example 35, (3-Ethyl-8-fluoroindolizin-5-yl)(1H-imidazol-2-yl)methanol] |  |  | IC50 (PAR1): > 50 µM |
| CCc1coc2c(F)ccc([C@H](O)c3ncc[nH]3)c12 (single isomer, unassigned) [Example 42] |  |  | IC50 (PAR2 [1]; [4]): 0.33 µM; IC50 (PAR2 [2]; [5]): 3.09 µM; residence time (PAR2 [3]): 119 min |
| CCCc1cc(F)ccc1[C@H](O)c1ncc[nH]1 [Example 3, (S)-(4-Fluoro-2-propylphenyl)(1H-imidazol-2-yl)methanol] | 1.29 | 3.92 | residence time (PAR2 [3]): 62 min; IC50 (PAR1): > 50 µM |
| OC(c1ncc[nH]1)c1ccc(F)cc1N1CCC(F)(F)C1 (stereo not shown) [Example 28, (2-(3,3-Difluoropyrrolidin-1-yl)-4-fluorophenyl)(1H-imidazol-2-yl)methanol] | 4.91 | 30.3 |  |
| C[C@@H]1CCN(c2cc(F)ccc2C(O)c2ncc[nH]2)C1 (stereo partly drawn) [Example 29, (4-Fluoro-2-((R)-3-methylpyrrolidin-1-yl)phenyl)(1H-imidazol-2-yl)methanol] | 13.1 | > 41.6 |  |
| OC(c1ncc[nH]1)c1ccc(F)cc1N1CC2CC2C1 (stereo not shown) [Example 30, (2-(3-Azabicyclo[3.1.0]hexan-3-yl)-4-fluorophenyl)(1H-imidazol-2-yl)methanol] |  |  | IC50 (PAR2 [1]; [4]): 4.67 µM; IC50 (PAR2 [2]; [5]): 11.6 µM |
| OC(c1ncc[nH]1)c1ccc(F)cc1C12CCCC1C2 (stereo not shown) [Example 31, (2-(Bicyclo[3.1.0]hexan-1-yl)-4-fluorophenyl)(1H-imidazol-2-yl)methanol] | 4.32 | > 41 |  |
| OC(c1ncc[nH]1)c1ccc(F)cc1-c1cocn1 (stereo not shown) [Example 32, (4-Fluoro-2-(oxazol-4-yl)phenyl)(1H-imidazol-2-yl)methanol] | 14.3 | 30.6 |  |
| OC(c1ncc[nH]1)c1ccc(F)cc1-c1cscn1 (stereo not shown) [Example 33, (4-Fluoro-2-(thiazol-4-yl)phenyl)(1H-imidazol-2-yl)methanol] |  |  | IC50 (PAR2 [1]; hPAR2 IPpone IC50 (μM)): 3.6 µM; IC50 (PAR2 [2]; hPAR2 FLPR (Trypsin) IC50 (μM)): 16.8 µM |
| Cc1ccc2c(F)ccc(C(O)c3ncc[nH]3)n12 (stereo not shown) [Example 37, (8-Fluoro-3-methylindolizin-5-yl)(1H-imidazol-2-yl)methanol] | 0.97 | 3.27 |  |
| CC(C)c1ccc2c(F)ccc(C(O)c3ncc[nH]3)n12 (stereo not shown) [Example 38, (8-Fluoro-3-isopropylindolizin-5-yl)(1H-imidazol-2-yl)methanol] |  |  | IC50 (PAR2 [1]; [4]): 1.91 µM; IC50 (PAR2 [2]; [5]): 13.9 µM |
| CCc1coc2c(F)ccc(C(O)c3ncc[nH]3)c12 (stereo not shown) [Example 40, (3-Ethyl-7-fluorobenzofuran-4-yl)(1H-imidazol-2-yl)methanol] |  |  | IC50 (PAR2 [1]; [4]): 0.75 µM; IC50 (PAR2 [2]; [5]): 4.9 µM |
| OC(c1ncc[nH]1)c1ccc(F)c2occ(C3CC3)c12 (stereo not shown) [Example 43, (3-Cyclopropyl-7-fluorobenzofuran-4-yl)(1H-imidazol-2-yl)methanol] | 0.86 | 4.58 |  |
| Cc1coc2c(F)ccc(C(O)c3ncc[nH]3)c12 (stereo not shown) [Example 52, (7-Fluoro-3-methylbenzofuran-4-yl)(1H-imidazol-2-yl)methanol] | 0.97 | 3.27 |  |
| CCn1ccc2c(F)ccc(C(O)c3ncc[nH]3)c21 (stereo not shown) [Example 57, (1-Ethyl-4-fluoro-1H-indol-7-yl)(1H-imidazol-2-yl)methanol] | 1.65 | 9.03 |  |
| OC(c1ncc[nH]1)c1ccc(F)c2ccc(Cl)n12 (stereo not shown) [Example 61, (3-Chloro-8-fluoro-indolizin-5-yl)-(1H-imidazol-2-yl)methanol] | 1.9 | 3.1 |  |
